According to patent US6593480B2 (Abbott Laboratories, priority 1999, dated 2003):

Target: T1, progesterone receptor (PR) (Homo sapiens, UniProt P06401)
T1 sequence (P06401 1-933): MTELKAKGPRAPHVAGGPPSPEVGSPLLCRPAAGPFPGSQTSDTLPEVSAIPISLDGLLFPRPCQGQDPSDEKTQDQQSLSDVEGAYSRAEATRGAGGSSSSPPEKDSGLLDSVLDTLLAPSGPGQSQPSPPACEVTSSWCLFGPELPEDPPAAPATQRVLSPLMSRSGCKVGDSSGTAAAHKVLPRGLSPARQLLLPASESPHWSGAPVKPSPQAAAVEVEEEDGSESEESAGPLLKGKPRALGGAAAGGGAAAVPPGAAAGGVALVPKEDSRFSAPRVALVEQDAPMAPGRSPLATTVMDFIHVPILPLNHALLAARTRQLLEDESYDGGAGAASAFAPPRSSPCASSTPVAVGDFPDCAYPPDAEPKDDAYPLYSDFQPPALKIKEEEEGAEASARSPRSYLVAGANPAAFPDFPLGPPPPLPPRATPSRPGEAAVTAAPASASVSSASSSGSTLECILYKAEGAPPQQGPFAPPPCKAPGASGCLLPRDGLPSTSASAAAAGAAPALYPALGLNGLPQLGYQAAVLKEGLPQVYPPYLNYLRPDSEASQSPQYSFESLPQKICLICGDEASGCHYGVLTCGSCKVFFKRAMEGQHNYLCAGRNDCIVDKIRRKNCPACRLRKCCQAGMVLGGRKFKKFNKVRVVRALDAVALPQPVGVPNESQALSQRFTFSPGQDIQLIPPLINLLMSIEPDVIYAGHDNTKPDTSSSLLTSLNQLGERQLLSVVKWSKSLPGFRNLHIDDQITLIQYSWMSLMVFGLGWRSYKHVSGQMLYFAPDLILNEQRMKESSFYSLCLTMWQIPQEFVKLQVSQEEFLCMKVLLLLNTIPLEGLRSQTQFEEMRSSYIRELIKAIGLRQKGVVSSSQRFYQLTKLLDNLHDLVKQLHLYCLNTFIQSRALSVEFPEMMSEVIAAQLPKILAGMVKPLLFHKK
Assay: Radioligand binding assay with progesterone receptor cytosol (similar protocol)
Description: Methods for Radioligand Binding Studies with Human Glucocorticoid and Progesterone Receptor Cytosol
A similar protocol was employed to measure affinity of the compounds of the present invention for progesterone receptor (PR).

| Molecule | IC50 |
| --- | --- |
| COc1cccc2c1-c1ccc(NS(C)(=O)=O)cc1C(c1cccc(Br)c1)O2 (stereo not shown) [Example 82, N-[6-(3-bromophenyl)-1-methoxy-6H-benzo[c]chromen-8-yl]methanesulfonamide] | 300 nM |
| COc1cccc2c1-c1ccc(NS(C)(=O)=O)cc1C(c1cccc(C#Cc3ccccc3)c1)O2 (stereo not shown) [Example 91, N-{1-methoxy-6-[3-(phenylethynyl)phenyl]-6H-benzo[c]chromen-8-yl}methanesulfonamide] | > 1000 nM |
| CCOC(=O)CCc1cccc(C2Oc3cccc(OC(F)F)c3-c3ccc(NS(C)(=O)=O)cc32)c1 (stereo not shown) [Example 118, ethyl 3-(3-{1-(difluoromethoxy)-8-[(methylsulfonyl)amino]-6H-benzo[c]chromen-6-yl}phenyl)propanoate] | 610 nM |
| COc1cccc2c1-c1ccc(NS(C)(=O)=O)cc1C(c1ccc(C#Cc3ccccc3)s1)O2 (stereo not shown) [Example 93, N-{1-methoxy-6-[5-(phenylethynyl)-2-thienyl]-6H-benzo[c]chromen-8-yl}methanesulfonamide] | > 1000 nM |
| COc1cccc2c1-c1ccc(NS(C)(=O)=O)cc1C(c1cccc(/C=C/c3ccccc3)c1)O2 (stereo not shown) [Example 99, N-(1-methoxy-6-{3-[(E)-2-phenylethenyl]phenyl}-6H-benzo[c]chromen-8-yl)methanesulfonamide] | > 1000 nM |
| C=CCN(C)c1cccc(C2Oc3cccc(OC)c3-c3ccc(NS(C)(=O)=O)cc32)c1 (stereo not shown) [Example 80, N-(6-{3-[allyl(methyl)amino]phenyl}-1-methoxy-6H-benzo[c]chromen-8-yl)methanesulfonamide] | 620 nM |
| COc1cccc(C2Oc3cccc(OC(F)F)c3-c3ccc(NS(C)(=O)=O)cc32)c1 (stereo not shown) [Example 108, N-[1-(difluoromethoxy)-6-(3-methoxyphenyl)-6H-benzo[c]chromen-8-yl]methanesulfonamide] | 170 nM |
| C=Cc1c(NS(C)(=O)=O)ccc2c1C(c1cccc(C(F)(F)F)c1)Oc1cccc(OC)c1-2 (stereo not shown) [Example 3, (1-methoxy-6-(3-trifluoromethyl)phenyl-7-vinyl-6H-dibenzo(b,d)pyran-8-yl)methanesulfonamide] | > 10000 nM |
| COc1cccc2c1-c1ccc(NS(C)(=O)=O)cc1C(c1cc(C)cc(C)c1)O2 (stereo not shown) [Example 87, N-[6-(3,5-dimethylphenyl)-1-methoxy-6H-benzo[c]chromen-8-yl]methanesulfonamide] | 210 nM |
| CS(=O)(=O)Nc1ccc2c(c1)C(c1cccc(Br)c1)Oc1cccc(OC(F)F)c1-2 (stereo not shown) [Example 103, N-[6-(3-bromophenyl)-1-(difluoromethoxy)-6H-benzo[c]chromen-8-yl]methanesulfonamide] | 180 nM |
| COc1cccc2c1-c1ccc(NS(C)(=O)=O)cc1C(c1cccc(-c3ccc(Cl)cc3)c1)O2 (stereo not shown) [Example 126, N-[6-(4′-chloro[1,1′-biphenyl]-3-yl)-1-methoxy-6H-benzo[c]chromen-8-yl]methanesulfonamide] | > 10000 nM |
| COc1cccc2c1-c1ccc(NS(C)(=O)=O)cc1C(c1ccsc1)O2 (stereo not shown) [Example 97, N-[1-methoxy-6-(3-thienyl)-6H-benzo[c]chromen-8-yl]methanesulfonamide] | 180 nM |
| COc1cccc2c1-c1ccc(NS(C)(=O)=O)cc1C(c1ccccc1)O2 (stereo not shown) [Example 5, N-(1-methoxy-6-phenyl-6H-dibenzo[b,d]pyran-8-yl)methanesulfonamide] | 3350 nM |
| (1-ethoxy-6-phenyl-6H-dibenzo(b,d)pyran-8-yl)methanesulfonamide [Example 44] | 6900 nM |
| CCCCC/C=C/C1Oc2cccc(OC)c2-c2ccc(NS(C)(=O)=O)cc21 (stereo not shown) [Example 98, N-{6-[(1E)-1-heptenyl]-1-methoxy-6H-benzo[c]chromen-8-yl}methanesulfonamide] | 92 nM |
| COc1cccc2c1-c1ccc(NS(C)(=O)=O)cc1C(c1ccc(-c3ccccc3)s1)O2 (stereo not shown) [Example 100, N-[1-methoxy-6-(5-phenyl-2-thienyl)-6H-benzo[c]chromen-8-yl]methanesulfonamide] | 250 nM |
| COc1cccc2c1-c1ccc(CS(N)(=O)=O)cc1C(c1cccc(Cl)c1)O2 (stereo not shown) [Example 60, (1-methoxy-6-(3-chlorophenyl)-6H-dibenzo(b,d)pyran-8-yl)methanesulfonamide] | 500 nM |
| COc1cccc2c1-c1ccc(NS(=O)(=O)c3ccccc3F)cc1C(c1ccccc1)O2 (stereo not shown) [Example 18] | > 10000 nM |
| COCCCc1cccc(C2Oc3cccc(OC(F)F)c3-c3ccc(NS(C)(=O)=O)cc32)c1 (stereo not shown) [Example 117, N-{1-(difluoromethoxy)-6-[3-(3-methoxypropyl)phenyl]-6H-benzo[c]chromen-8-yl}methanesulfonamide] | 430 nM |

Continued, values first:

| IC50 | Molecule |
| --- | --- |
| 140 nM | CS(=O)(=O)Nc1ccc2c(c1)C(c1cccc(-c3ccc(F)cc3)c1)Oc1cccc(OC(F)F)c1-2 (stereo not shown) [Example 144, N-[1-(difluoromethoxy)-6-(4′-fluoro[1,1′-biphenyl]-3-yl)-6H-benzo[c]chromen-8-yl]methanesulfonamide] |
| 680 nM | COc1ccc(Br)c2c1-c1ccc(NS(C)(=O)=O)cc1C(c1ccccc1)O2 (stereo not shown) [Example 154, N-(4-bromo-1-methoxy-6-phenyl-6H-benzo[c]chromen-8-yl)methanesulfonamide] |
| > 10000 nM | COc1cccc2c1-c1ccc(NS(C)(=O)=O)cc1C(c1cccc(N(C)S(=O)(=O)c3ccccc3)c1)O2 (stereo not shown) [Example 129, N(3-{1-methoxy-8-[(methylsulfonyl)amino]-6H-benzo[c]chromen-6-yl}phenyl)-N-methylbenzenesulfonamide] |
| > 10000 nM | CS(=O)(=O)Nc1ccc2c(c1)C(c1cccc(CCCCCCC#N)c1)Oc1cccc(OC(F)F)c1-2 (stereo not shown) [Example 137, N-[6-[3-(6-cyanohexyl)phenyl]-1-(difluoromethoxy)-6H-benzo[c]chromen-8-yl]methanesulfonamide] |
| > 10000 nM | CCS(=O)(=O)N(C)c1cccc(C2Oc3cccc(OC)c3-c3ccc(NS(C)(=O)=O)cc32)c1 (stereo not shown) [Example 131, N-(3-{1-methoxy-8-[(methylsulfonyl)amino]-6H-benzo[c]chromen-6-yl}phenyl)-N-methylethanesulfonamide] |
| 530 nM | Cc1ccc(-c2cccc(C3Oc4cccc(OC(F)F)c4-c4ccc(NS(C)(=O)=O)cc43)c2)cc1 (stereo not shown) [Example 147, N-[1-(difluoromethoxy)-6-(4′-methyl[1,1′-biphenyl]-3-yl)-6H-benzo[c]chromen-8-yl]methanesulfonamide] |
| ≥ 10000 nM | COc1cccc2c1-c1ccc(NS(C)(=O)=O)cc1C(c1cccc(N(C)S(=O)(=O)c3ccc(Br)cc3)c1)O2 (stereo not shown) [Example 152, 4-bromo-N-(3-{1-methoxy-8-[(methylsulfonyl)amino]-6H-benzo[c]chromen-6-yl}phenyl)-N-methylbenzenesulfonamide] |
| > 10000 nM | CCCS(=O)(=O)N(C)c1cccc(C2Oc3cccc(OC)c3-c3ccc(NS(C)(=O)=O)cc32)c1 (stereo not shown) [Example 132, N-(3-{1-methoxy-8-[(methylsulfonyl)amino]-6H-benzo[c]chromen-6-yl}phenyl)-N-methyl-1-propanesulfonamide] |
| 220 nM | CS(=O)(=O)Nc1ccc2c(c1)C(c1cccc(-c3ccc(Cl)cc3)c1)Oc1cccc(OC(F)F)c1-2 (stereo not shown) [Example 143, N-[6-(4′-chloro[1,1′-biphenyl]-3-yl)-1-(difluoromethoxy)-6H-benzo[c]chromen-8-yl]methanesulfonamide] |
